From US7019034B2, “Compositions and methods for reducing serum glucose and triglyceride levels in diabetic mammals” (Allergan, Inc., priority 2003, dated 2006)

Assays:
[1] = molecular target: T1, RXRα (Homo sapiens, UniProt P19793); assay: holoreceptor transactivation assay, RXRα; assay type: cell-based; conditions: number in brackets
T1 construct: expressed in transfected cells
T1 sequence (P19793 1-462): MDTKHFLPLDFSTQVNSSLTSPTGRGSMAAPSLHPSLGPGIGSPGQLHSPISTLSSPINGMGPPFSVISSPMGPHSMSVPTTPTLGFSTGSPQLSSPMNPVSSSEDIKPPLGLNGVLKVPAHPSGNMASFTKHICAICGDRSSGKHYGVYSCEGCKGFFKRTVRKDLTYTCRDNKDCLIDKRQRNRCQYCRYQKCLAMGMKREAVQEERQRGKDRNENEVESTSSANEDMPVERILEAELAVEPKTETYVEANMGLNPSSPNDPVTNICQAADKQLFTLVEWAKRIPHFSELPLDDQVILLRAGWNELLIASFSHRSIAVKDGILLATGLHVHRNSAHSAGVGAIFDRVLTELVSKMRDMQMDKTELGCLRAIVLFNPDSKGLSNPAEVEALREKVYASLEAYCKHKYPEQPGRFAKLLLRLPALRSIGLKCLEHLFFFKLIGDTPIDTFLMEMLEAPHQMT
From the text: A holoreceptor transactivation assay and a ligand binding assay which measure the antagonist/agonist like activity of the compounds of the invention, or their ability to bind to the several retinoid receptor subtypes, respectively, are described in published PCT Application No. WO WO93/11755 (particularly on pages 30–33 and 37–41) published on Jun. 24, 1993, the specification of which is also incorporated herein by reference. […] The results obtained in this assay are expressed in EC50 numbers, as they are also in the chimeric receptor transactivation assay. The results of the ligand binding assay are expressed in Ki numbers. (See Cheng et al. Biochemical Pharmacology Vol. 22 pp 3099–3108, expressly incorporated herein by reference.)
(§1) Particularly, the transactivation data pertaining to activation of the RAR receptors were obtained in the chimeric assay, and the transactivation data pertaining to the activation of RXR receptors were obtained in the holoreceptor assay.
(§2) In Table 1 NA stands for not active at all as an agonist. ND stands for not determined. The first row of numbers pertaining to each compound is the measured EC50 number. […] The third row of numbers pertaining to each compound is the binding Ki number.

[2] = molecular target: T2, RXRβ (UniProt P28704); assay: holoreceptor transactivation assay, RXRβ; assay type: cell-based
T2 sequence (P28704 1-520): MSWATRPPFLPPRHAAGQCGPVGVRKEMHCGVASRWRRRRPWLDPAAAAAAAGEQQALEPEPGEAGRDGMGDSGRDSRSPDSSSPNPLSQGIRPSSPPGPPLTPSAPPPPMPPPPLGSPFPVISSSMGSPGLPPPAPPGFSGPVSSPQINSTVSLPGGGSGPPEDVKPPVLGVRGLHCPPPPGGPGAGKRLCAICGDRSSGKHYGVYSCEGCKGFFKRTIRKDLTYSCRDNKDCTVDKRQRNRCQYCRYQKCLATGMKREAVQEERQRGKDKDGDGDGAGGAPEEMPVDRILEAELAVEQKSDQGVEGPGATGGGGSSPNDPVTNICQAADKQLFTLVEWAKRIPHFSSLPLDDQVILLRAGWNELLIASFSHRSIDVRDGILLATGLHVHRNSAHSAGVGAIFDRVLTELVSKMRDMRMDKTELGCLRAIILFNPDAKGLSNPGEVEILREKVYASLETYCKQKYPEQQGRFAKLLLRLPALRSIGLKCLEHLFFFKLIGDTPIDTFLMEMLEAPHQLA
From the text: The results obtained in this assay are expressed in EC50 numbers, as they are also in the chimeric receptor transactivation assay. The results of the ligand binding assay are expressed in Ki numbers.
as §1, §2

[3] = test system: diabetic db/db mice; assay: serum glucose in diabetic db/db mice, 7 days oral dosing; assay type: in vivo; conditions: for Glucose: 10 mg/kg once daily oral gavage, mean +/- SD
Experimental: (§3) Effects of RXR agonists on serum glucose and triglyceride were studied in diabetic db/db mice. […] Briefly, animals were dosed once daily by oral gavage using corn oil vehicle for a period of 7 consecutive days. Serum samples were collected on day 1 (first day of dosing) and day 7 at hour 0 (immediately prior to dosing) and hour 3 (approximately 3 hours after dosing). Serum glucose and triglyceride levels of these samples were measured as described in the reference manuals: Glucose/HK. Boehringer Mannheim Corporation, 9115 Hague Road, Indianapolis, Ind., USA and Triglycerides/GPO. Roche Diagnostics Corporation, 9115 Hague Road, Indianapolis, Ind., USA, expressly incorporated herein. Only those animals with glucose levels of higher than 300 mg/dl at 0 hour on day 1 were considered as diabetic and included in data analysis.
(§4) A measured amount of dosing solution was withdrawn into a metal feeding tube attached to a marked syringe. Animals were restrained by grasping of their back skin while the feeding tube was gently inserted into their mouth and into esophagus. A fixed amount of the dosing solution was displaced into the esophagus/stomach of the animal by pushing the plunger of the syringe. Serum samples were collected from the retro-orbital sinus while the animals were anesthetized. These samples were analyzed by using commercially available kits from Boehringer Manheim for their glucose levels and Roche Diagnostics for their triglyceride levels in a Boehringer Manheim Hatachi Clinical Chemistry Analyzer.
(§5) For glucose assay, an enzymatic reaction using hexokinase and glucose-6-phosphodehydrogenase to catalyze glucose to gluconate-6phosphate and NADPH was employed. The amount of NADPH formed during these reactions was equivalent to the amount of glucose in the serum and was measured with a spectrophotometer. For triglycerides, a series of enzymatic reactions which included lipase, glycerol kinase and glycerol phosphate oxidase to formed dihydroacetone phosphate and peroxidase. The peroxidase produced catalyzed a reaction between peroxide and 4-aminophenazone and 4-chlorophenol in a Trinder reaction to generate a color change. This color change was measured by a spectrophotometer and reflected the amount of triglyceride in the sample.

[4] = test system: diabetic db/db mice; assay: serum triglycerides in diabetic db/db mice, 7 days oral dosing; assay type: in vivo; conditions: for Triglycerides: 10 mg/kg once daily oral gavage, mean +/- SD
Experimental: as §3, §4, §5

[5] = test system: young db/db mice; assay: serum thyroxine (T4) in young db/db mice, 14 days oral dosing; assay type: in vivo
Experimental: In another study the efficacy of RXR agonists in the prevention of diabetes was tested in young db/db mice. […] Serum samples were analyzed by using commercially available kits from Boehring Manheim for their thyroxine (T4) levels in a Boehringer Manheim Hatachi Clinical Chemistry Analyzer as described in the reference manual of Boehringer Mannheim Corporation, 9115 Hague Road, Indianapolis, Ind., USA, expressly incorporated herein.

[6] = Day 1, 0 hr (immediately prior to dosing)

RXR α efficacy in percentage as compared to the standard compound [1]: 100%
RXR β efficacy in percentage as compared to the standard compound [2]: 0.4(100)1%
effect on serum triglyceride (in words) ([4]; mouse, in vivo): induces hypertriglyceridemia
Serum thyroxine ([5]; 5 mg/kg orally for 14 days, mean +/- SD (n = 7)): 0.83 ± 0.29 µg/dL
effect on serum T4 (in words) ([5]; mouse, in vivo): lowering serum T4
Structure (SMILES): CC(/C=C/[C@@H]1C[C@]1(C)c1ccc2c(c1)C(C)(C)CCC2(C)C)=C\C(=O)O [Standard compound, (2E,4E,1′S,2′S)-3-methyl-5-[2′-methyl-2′-(5,5,8,8-tetramethyl-5,6,7,8-tetrahydro-naphthalen-2-yl)-cyclopropyl]-penta-2,4-dienoic acid, reference compound]
efficacy in activating RXRβ compared with RXRα and RXRγ subtypes (in words) [2]: approximately equally efficacious in activating the RXRα, RXRβ and RXRγ subtypes
Glucose [3, 6]: 501 ± 87 mg/dL
Glucose ([3]; Day 1, 3 hr): 403 ± 86 mg/dL
Glucose ([3]; Day 7, 0 hr): 367 ± 101 mg/dL
Glucose ([3]; Day 7, 3 hr): 301 ± 40 mg/dL
effect on serum glucose in diabetic mouse (in words) ([3]; mouse, in vivo): capable of lowering serum glucose
Triglycerides [4, 6]: 183 ± 50 mg/dL
Triglycerides ([4]; Day 1, 3 hr): 220 ± 87 mg/dL
Triglycerides ([4]; Day 7, 0 hr): 137 ± 32 mg/dL
